Literature values, collected in article PMC11866498 (Cell Reports Medicine, 2025).

Experiments:
[1] = ref Previous studies
[2] = ref Previous studies; remark: listed apart in the source

## C[C@H]1COC2=C1C(=O)C(=O)c1c2ccc2c1CCCC2(C)C [CTS, cryptotanshinone]
[1]
  water solubility: inadequate
[2]
  in vivo stability: inadequate
